Values of other authors, collected in US20050271673A1, “Trifunctional reagent for conjugation to a biomolecule” (priority 1998, published 2005).

What was measured:
streptavidin = streptavidin (Streptomyces avidinii, UniProt P22629); conditions: association constant; Green 1990, 1975
avidin = avidin (Gallus gallus, UniProt P02701); conditions: association constant; Green 1990, 1975
Chain of avidin (P02701 25-152, species assumed): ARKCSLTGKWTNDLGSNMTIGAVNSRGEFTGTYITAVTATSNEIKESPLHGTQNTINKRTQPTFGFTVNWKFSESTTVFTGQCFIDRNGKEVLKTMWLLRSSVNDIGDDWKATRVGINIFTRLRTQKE

Chain of streptavidin (P22629 25-183, species assumed): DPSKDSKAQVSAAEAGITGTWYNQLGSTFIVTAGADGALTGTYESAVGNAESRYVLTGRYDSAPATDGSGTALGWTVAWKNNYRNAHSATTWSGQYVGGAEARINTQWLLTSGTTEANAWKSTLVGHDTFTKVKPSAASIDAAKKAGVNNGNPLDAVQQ

## O=C(O)CCCC[C@@H]1SC[C@@H]2NC(=O)N[C@@H]21 [biotin]
streptavidin
  K (binding constant of biotin with streptavidin): 1013 to 1015 M⁻¹
avidin
  K (binding constant of biotin with avidin): 1013 to 1015 M⁻¹
